Marks after values point to notes of the source that are not given here.
Assays:
PH1 patients = details: cited from earlier work
[1] = system: fresh primary mouse hepatocytes; test: Primary mouse hepatocyte assay (lactate production); type: cell-based; details: Run at 0.4M cells/well concentration of hepatocytes
Experimental: Compounds were evaluated in an ex vivo assay consisting of fresh primary mouse hepatocytes. Hepatocytes were isolated from wild type mice (C57BL/6NCrl from Charles River Labs) using a two-step collagenase perfusion technique which involves a sequential perfusion of anesthetized mice with Hanks' balanced salt solution and collagenase. Following isolation, viable wild type hepatocytes (0.1 M cells/well) were incubated with test compound in presence of pyruvate and compound potency was evaluated by measuring the lactate produced by the cells using liquid chromatography coupled to mass spectrometry. Chromatographic separation was achieved on an XDB-C18 4.6×50 mm column (Agilent, Cat #927975-902) at a flow rate of 1 mL/min Mobile phase A consisted of 0.1% formic acid in water and mobile phase B consisted of acetonitrile. A gradient program was initiated starting at 5% B which was held for 1 minutes, then ramped from 5% to 95% B over 1 minute. After holding at 95% B for 1 minute, the program changed back to 5% B. The column was equilibrated with 5% B for […] before the next injection. The mass spectrometer was operated in negative mode with electrospray ionization. The following transition along with their collision energy (CE) were used: 89→43 (CE: −16 V) for lactate and 92→45 (CE: −16 V) for ^13C3-Lactate (internal standard).

[2] = biological target: T1, human recombinant C-terminal His-tagged LDHA (Homo sapiens, UniProt P00338); test: Human LDHA enzyme assay; type: biochemical; details: 50 μM pyruvate, 50 μM NADH, no HSA
T1 construct: His (C)
Experimental: (§1) Compounds were dissolved in DMSO and preincubated with human recombinant C-terminal His-tagged LDHA (0.070 μg/mL) for 10 min at room temperature in assay buffer consisting 50 mM Tris, pH 7.5 and 100 mM NaCl in black walled, clear bottom, non-binding 96-well plates. Equal volumes of substrate solution containing 100 μM of pyruvate and 100 μM of NADH in assay buffer was added to each well (final concentration 0.035 μg/mL enzyme, 50 μM pyruvate, 50 μM NADH, and 1% DMSO). For human serum albumin (HSA) shift assay, the compounds were preincubated with the enzyme in assay buffer containing 20% HSA before substrate addition (final concentration 10% HSA). The reaction was monitored at 340 nm on a plate reader (Molecular Devices) in kinetic mode for 15 min. The rate of the reaction was determined by plotting absorbance vs time.

[3] = biological target: T1, human recombinant C-terminal His-tagged LDHA; test: Human LDHA enzyme assay, human serum albumin (HSA) shift; type: biochemical; details: final concentration 10% HSA
Experimental: as §1

[4] = Liver and plasma concentrations in c57/bl6 mice; type: in vivo; details: 20 mg/kg PO
Experimental: [The procedure below names another organism; the source says it served here with some conditions changed.] Plasma and liver (target organ) concentrations of test compounds were determined in rats following a single per os (PO) administration of the test compounds. Male Sprague Dawley rats (6-8 weeks of age, Charles River Labs) were fasted overnight and a single dose of test compounds (10 mg/kg; as a suspension in 0.5% methyl cellulose) was administered by PO gavage. Rats were then sacrificed at 4 and 24 h after administration of the test compounds, and plasma and liver tissue samples were collected. Liver tissue samples were homogenized in 5 volumes of water:acetonitrile (50/50; v/v) mixture using a bead mill homogenizer. Plasma and liver homogenate samples were processed by protein precipitation using acetonitrile and the concentrations of the test compounds were determined by liquid chromatography-tandem mass spectrometry (SciEx triple quad 5500+ with Exion UPLC).
Liver and plasma exposures at the 4 h and 24 h timepoints for the various compounds are described in Table 5 below. Measured compound concentrations are as follows: ++++>10 μM; 10 μM≥+++>5 μM; 5 μM≥++>1 μM; 1 μM≥+>0.25 μM; and 0.25 μM≥−.

Cc1ncc(CO)c(CO)c1O [Pyridoxine]
lowering of urinary oxalate (PH1 patients): approximately 30%

NS(=O)(=O)c1ccc(Cc2c(-c3ccc(F)c(OC(F)F)c3)nn(-c3nc(C(=O)O)cs3)c2CC2CC2)cc1F [Example 13, 2-(5-(cyclopropylmethyl)-3-(3-(difluoromethoxy)-4-fluorophenyl)-4-(3-fluoro-4-sulfamoylbenzyl)-1H-pyrazol-1-yl)thiazole-4-carboxylic acid]
IC50 [1]: 250 to 1000 nM | IC50 [2]: < 1 nM | IC50 [3]: 1 to 10 nM | Measured Compound Concentrations Liver - 4 h ([4]; liver): ++* (5 μM≥++>1 μM) | Measured Compound Concentrations Liver - 24 h ([4]; liver, 24 h): −* (0.25 μM≥−) | Measured Compound Concentrations Plasma - 4 h ([4]; plasma): −* (0.25 μM≥−) | Measured Compound Concentrations Plasma - 24 h ([4]; plasma, 24 h): −* (0.25 μM≥−)

Cc1c(Cc2ccc(S(N)(=O)=O)c(F)c2)c(-c2ccc(F)cc2)nn1-c1nc(C(=O)O)cs1 [Example 3, 2-(4-(3-Fluoro-4-sulfamoylbenzyl)-3-(4-fluorophenyl)-5-methyl-1H-pyrazol-1-yl)thiazole-4-carboxylic acid]
IC50 [1]: 250 to 1000 nM | IC50 [2]: < 1 nM | IC50 [3]: 1 to 10 nM | Measured Compound Concentrations Liver - 4 h ([4]; liver): ++++* (++++>10 μM) | Measured Compound Concentrations Plasma - 4 h ([4]; plasma): −* (0.25 μM≥−)

From patent publication US20230183228A1, “SUBSTITUTED PYRAZOLYL COMPOUNDS AND METHODS OF USE THEREOF” (Chinook Therapeutics Canada, Inc., priority 2020, published 2023)
